Test results from article PMC11558998, “Lipophilic bisphosphonates reduced cyst burden and ameliorated hyperactivity of mice chronically infected with Toxoplasma gondii” (mBio, 2024).

Assays:
[1] = tested on: Me49-RFP brain tissue cysts in Swiss Webster mice; experiment: Treatment of Swiss Webster mice chronically infected with Me49-RFP; format: in vivo, Toxoplasma gondii; conditions: Swiss Webster mice, 5,000 Me49-RFP i.p.
T. gondii tachyzoites = experiment: EC50 against tachyzoites indicated in Fig. 1E, used to set 3x and 5x concentrations; conditions: Toxoplasma gondii, read-out: indicated EC50 (shown in parentheses, Fig. 1E)
[2] = tested on: ex vivo bradyzoites of the Pru strain from chronically infected mice; experiment: Ex vivo bradyzoite growth assay, Pru; format: cell-based, Toxoplasma gondii; conditions: 3x EC50
Protocol: (§1) Brains of chronically infected mice were collected, homogenized with seven strokes in a glass homogenizer, and then enumerated on a Delta Vision microscope [protocol adapted from reference ([45])]. Twenty-five cysts per plate were then placed in a tube for acid/pepsin (170 mM sodium chloride, 60 mM hydrochloric acid, and 0.1 mg/mL pepsin) treatment for 10 minutes in a 37°C water bath. The cysts were then neutralized with 94 mM Na2CO3. The liberated bradyzoites were then equally distributed into a 12-well plate. For the growth assay, the cells were grown in the presence of compounds or DMSO for 12 and 14 days undisturbed. For the viability assays, the cells were treated with compounds or DMSO for 4 hours before being washed with 1× PBS and then grown for 12 and 14 days in media without compounds. After 12 and 14 days, the cells were fixed with 100% ethanol and stained with 2.5× crystal violet. The control DMSO plaque image is duplicated from Fig. 2B to be used as the representative image of plaques in Fig. 2A. Plaques were quantified on a light microscope using the 4× objective and the size of the plaques was measured using Fiji (ImageJ) software.

[3] = tested on: in vitro derived Pru cysts; experiment: Vacuole size of in vitro derived Pru cysts; format: cell-based, Toxoplasma gondii
Protocol: (§2) Type II Me49 or Pru was differentiated using compound 1 as previously described ([50]). Confluent HFF monolayers on glass coverslips (preincubated for 2 hours with 3 µM compound 1, as described previously) were infected with 5 × 10^3 tachyzoites of the ME49 or Pru (type 2) or EGS (type I/III) strain (no compound 1 for EGS). The cells were allowed to grow and differentiate in a 37°C incubator with ambient CO2 for 3 days (EGS was allowed to spontaneously differentiate for 4 days). […] After 7 days (Me49) or 8 days (EGS) of incubation, the cells were fixed with 3% paraformaldehyde for 10 minutes, permeabilized with 0.25% Triton X-100 for 10 minutes, and then blocked in 3% bovine serum albumin for 1 hour. The coverslips were then incubated in DBA rhodamine (for Me49)([51]) or DBA lectin (a kind gift from Diego Huet for EGS) and anti-SAG1 rat antibody (a kind gift from Vern Carruthers) for 2 hours. Then, the secondary anti-rat 488 was used to visualize the SAG1 antibody. The cells were then mounted onto microscope slides with fluoromount and DAPI (4′,6-diamidino-2-phenylindole). The slides were placed in the fridge for a minimum of 24 hours before imaging on a Delta Vision microscope. The vacuole sizes were calculated using ImageJ software.

[4] = tested on: T. gondii Me49 strain (type II) tachyzoites; experiment: In vitro growth inhibition of red fluorescent tachyzoites, Me49 strain; format: cell-based; conditions: Toxoplasma gondii, tachyzoite growth
Protocol: (§3) Experiments with T. gondii tachyzoites were carried out with parasites expressing a td-Tomato RFP ([48], [49]). For drug testing and growth assays, parasites were purified by passing them through a 25-gauge needle, followed by filtration through a 5 µm filter. Human fibroblasts were cultured in 96-well black plates for 48 (hTERT) or 120 (HFF) hours prior to the addition of 4,000 (type I) or 8,000 (type II) fluorescent tachyzoites per well. Fluorescence values were measured for up to 7 days (type I) and 21 days (type II), and both excitation (544 nm) and emission (590 nm) were read from the bottom of the plates in a Molecular Devices plate reader ([36]). The EC50s were calculated using GraphPad Prism software.

[5] = tested on: in vitro differentiated Me49 bradyzoites (cysts); experiment: Vacuole size of in vitro differentiated Me49 cysts (DBA/SAG1 IFA); format: cell-based, Toxoplasma gondii; conditions: positive control, concentration not stated in the sentence (Fig. 1C: 3x and 5x EC50)
Protocol: as §2

C2C12 myoblasts = experiment: Cytotoxicity on C2C12 myoblasts (Alamar Blue); format: cell-based
Protocol: (§4) The cytotoxicity was tested using an Alamar Blue assay as described by Recher et al. ([49]).

[6] = tested on: hyperactivity of Balb/c mice chronically infected with Pru-GFP; experiment: CageDot continuous monitoring of mouse activity during chronic infection; conditions: 5 mg/kg/day i.p. 16 days, 15 dpt and 2 wpt
Protocol: At this time, the remaining mice were injected i.p. daily for 16 consecutive days with 200 µL solvent (10% Kolliphor HS-15) or compounds dissolved in 10% HS-15. […] Mice were euthanized humanely 2 weeks after the final injection.
Mice were monitored during the infection using the CageDot ([30], [31]), which detects vibrations. […] Data are collected at a 100 Hz sampling rate (each second, 100 data points were collected).

[7] = tested on: Me49-RFP brain tissue cysts in CBA/j mice; format: in vivo, Toxoplasma gondii; conditions: 500 Me49-RFP i.p., 5 mg/kg/day i.p. for 16 days from 28 dpi, brains 2 weeks after treatment
Protocol: CBA/j female mice (Jackson Laboratory) were injected i.p. with a 200 µL suspension of 500 tachyzoites of the Me49-RFP strain T. gondii (type II genotype). […] At 4 weeks post-infection, the brains of two mice were collected to check for the presence of cysts and to confirm that the mice were in the chronic stage. At this time, the remaining mice were injected i.p. daily for 16 consecutive days with 200 µL solvent (10% Kolliphor HS-15) or compounds dissolved in 10% HS-15. […] Mice were euthanized humanely 2 weeks after the final injection. The mouse brains were collected in 1 mL sterile PBS, minced with scissors, and homogenized using a glass homogenizer. Four 20 µL samples (80 µL total or 8% of sample) of each brain homogenate were placed on a glass microscope slide. Cysts were enumerated using a Delta Vision fluorescence microscope.

[8] = tested on: ex vivo bradyzoites of the Pru strain from chronically infected mice; experiment: Ex vivo bradyzoite viability assay, Pru; format: cell-based, Toxoplasma gondii; conditions: 3x EC50
Protocol: as §1

[9] = tested on: Human Foreskin Fibroblasts (HFF); experiment: Cytotoxicity on HFF cells (Alamar Blue); format: cell-based
Protocol: as §4

[10] = tested on: ex vivo bradyzoites of Me49-RFP from brains of chronically infected mice; experiment: Ex vivo bradyzoite growth assay, Me49-RFP; format: cell-based, Toxoplasma gondii; conditions: inhibitors present 14 days, 3x EC50
Protocol: as §1

[11] = tested on: toxoplasmosis relapse in patients; conditions: after 6 years of therapy; cited from earlier work
[12] = tested on: type I/III EGS strain cysts; experiment: Vacuole size of spontaneously formed EGS cysts; format: cell-based, Toxoplasma gondii; conditions: EGS spontaneous cysts, 3x EC50, 4 days
Protocol: as §2

[13] = tested on: Pru-GFP brain tissue cysts in Balb/c mice; experiment: Treatment of Balb/c mice chronically infected with Pru-GFP; conditions: Balb/c mice, 1,500 Pru-GFP i.p., 5 mg/kg/day i.p. for 16 days from 28 dpi
Protocol: BALB/c male mice (Jackson Laboratory) were injected i.p. with a 200 µL suspension of 1,500 tachyzoites of the Pru-GFP strain T. gondii (type II genotype) (a gift from Laura Knoll). […] At 4 weeks post-infection, the brains of two mice were collected to check for the presence of cysts and to confirm that the mice were in the chronic stage. At this time, the remaining mice were injected i.p. daily for 16 consecutive days with 200 µL solvent (10% Kolliphor HS-15) or compounds dissolved in 10% HS-15. […] Mice were euthanized humanely 2 weeks after the final injection. The mouse brains were collected in 1 mL sterile PBS, minced with scissors, and homogenized using a glass homogenizer. Four 20 µL samples (80 µL total or 8% of sample) of each brain homogenate were placed on a glass microscope slide. Cysts were enumerated using a Delta Vision fluorescence microscope.

[14] = tested on: T. gondii Pru strain (type II) tachyzoites; experiment: In vitro growth inhibition of red fluorescent tachyzoites, Pru strain; format: cell-based, Toxoplasma gondii; conditions: tachyzoite growth
Protocol: as §3

T. gondii ATQ^R R5 = experiment: In vitro growth inhibition, atovaquone resistant strain R5; format: cell-based; conditions: Toxoplasma gondii, read-out: EC50 ATQ^R R5
Protocol: as §3

[15] = tested on: ex vivo bradyzoites of Me49-RFP from brains of chronically infected mice; experiment: Ex vivo bradyzoite viability assay, Me49-RFP; format: cell-based, Toxoplasma gondii; conditions: inhibitors 4 hours then drug-free 14 days, 3x EC50
Protocol: as §1

T. gondii ATQ^R R4 = experiment: In vitro growth inhibition, atovaquone resistant strain R4; format: cell-based; conditions: Toxoplasma gondii, read-out: EC50 ATQ^R R4, atovaquone resistant strain R4
Protocol: as §3

[16] = tested on: T. gondii RH strain (type I) tachyzoites; experiment: In vitro growth inhibition of red fluorescent tachyzoites, RH strain; format: cell-based; conditions: Toxoplasma gondii, tachyzoite growth
Protocol: as §3

## O=C1C(O)=C([C@H]2CC[C@H](c3ccc(Cl)cc3)CC2)C(=O)c2ccccc21 [Atovaquone]
[1]; ATQ at 5 mg/kg daily for 16 days
  reduction of cyst burden: 65.5%
[1]; daily treatment 16 days
  cyst size: reduced the size of the cysts
T. gondii tachyzoites
  EC50: 10 nM
[2]
  number of plaques, ex vivo growth: significant reduction in the number of plaques
[3]
  vacuole size: decreased the vacuole size
[4]
  EC50: 1.53 ± 0.229 nM
[5]
  vacuole size: reduced vacuole size
C2C12 myoblasts; 4X EC50
  % Inhibition on C2C12: 2.61 ± 4.48%
C2C12 myoblasts; 10X EC50
  % Inhibition on C2C12: 6.84 ± 5.34%
[6]
  activity of infected mice (nightly average energy, CageDot): decreased the activity of the infected mice to similar levels of the control uninfected mice
[7]
  reduction in the number of cysts compared to the control: 56.6%
[8]
  number of plaques, ex vivo viability: significant reduction in the number of plaques
[9]; 4X EC50
  % Inhibition on HFF: 4.69 ± 2.56%
[9]; 10X EC50
  % Inhibition on HFF: 7.23 ± 2.29%
[10]
  number of plaques, ex vivo growth: effective against bradyzoite growth
[11]
  patients experiencing relapse: up to 75%
[12]
  size of the vacuoles (cysts): reduced the size of the vacuoles
[13]
  reduction of cyst burden: 71.9%
[14]
  EC50: 4.17 ± 2.34 nM
T. gondii ATQ^R R5
  EC50: 1030 ± 290 nM
[15]
  number of plaques, ex vivo viability: only a minimal impact on viability
T. gondii ATQ^R R4
  EC50: 1900 nM

## CCc1nc(N)nc(N)c1-c1ccc(Cl)cc1 [Pyrimethamine]
[4]
  EC50: 1.67 ± 0.268 nM
C2C12 myoblasts; 4X EC50
  % Inhibition on C2C12: 2.39 ± 3.50%
C2C12 myoblasts; 10X EC50
  % Inhibition on C2C12: 6.57 ± 1.31%
[9]; 4X EC50
  % Inhibition on HFF: 0.38 ± 2.61%
[9]; 10X EC50
  % Inhibition on HFF: 6.18 ± 0.98%
[14]; Toxoplasma gondii
  EC50: 43.2 ± 2.58 nM
T. gondii ATQ^R R5
  EC50: 5.23 ± 0.221 nM
[16]
  EC50: 383 ± 78 nM
T. gondii ATQ^R R4
  EC50: 22.1 ± 3.52 nM
